Assay results reported in the supplement of paper PMC10307832.

Experiments:
Assay in all cases: relative viability (nuclei count vs DMSO), 5 days (fraction); higher = more cells survive
Decitabine + AZD7762 = compound: Nc1ncn([C@H]2C[C@H](O)[C@@H](CO)O2)c(=O)n1 [Decitabine] + NC(=O)Nc1cc(-c2cccc(F)c2)sc1C(=O)N[C@H]1CCCNC1 [AZD7762] (partner 0.2 µM)
How it was run: (§1)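 After 5 days of treatment, lung cancer cells in 1536-well plates were fixed and stained in a single step (final 0.05% Triton X-100, 1% formaldehyde, 1 ug/ml Hoechst) and their nuclei counted on 4× images. Treatment had been applied by pin tool the day after seeding as one drug alone or as a fixed anchor-drug dose with five library-drug doses (not always all listed) in √10 steps. Relative viability is the nuclei count of treated wells divided by that of vehicle wells, and values are medians of duplicate plates.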

Decitabine + Olaparib = compound: Nc1ncn([C@H]2C[C@H](O)[C@@H](CO)O2)c(=O)n1 [Decitabine] + O=C(c1cc(Cc2n[nH]c(=O)c3ccccc23)ccc1F)N1CCN(C(=O)C2CC2)CC1 [Olaparib] (partner 8 µM)
How it was run: as §1

Cediranib + Navitoclax = compound: COc1cc2c(Oc3ccc4[nH]c(C)cc4c3F)ncnc2cc1OCCCN1CCCC1 [Cediranib] + CC1(C)CCC(c2ccc(Cl)cc2)=C(CN2CCN(c3ccc(C(=O)NS(=O)(=O)c4ccc(N[C@H](CCN5CCOCC5)CSc5ccccc5)c(S(=O)(=O)C(F)(F)F)c4)cc3)CC2)C1 [Navitoclax] (partner 0.5 µM)
How it was run: as §1

Cediranib + Alpelisib = compound: COc1cc2c(Oc3ccc4[nH]c(C)cc4c3F)ncnc2cc1OCCCN1CCCC1 [Cediranib] + Cc1nc(NC(=O)N2CCC[C@H]2C(N)=O)sc1-c1ccnc(C(C)(C)C(F)(F)F)c1 [Alpelisib] (partner 2 µM)
How it was run: as §1

Cell Line	relative viability (Decitabine + AZD7762; first compound 0.04 µM)	relative viability (Decitabine + AZD7762; first compound 0.1265 µM)	relative viability (Decitabine + AZD7762; first compound 0.4 µM)	relative viability (Decitabine + AZD7762; first compound 1.265 µM)	relative viability (Decitabine + AZD7762; first compound 4 µM)	relative viability (Decitabine + Olaparib; first compound 0.04 µM)	relative viability (Decitabine + Olaparib; first compound 0.1265 µM)	relative viability (Decitabine + Olaparib; first compound 0.4 µM)	relative viability (Decitabine + Olaparib; first compound 1.265 µM)	relative viability (Decitabine + Olaparib; first compound 4 µM)	relative viability (Cediranib + Navitoclax; first compound 0.04 µM)	relative viability (Cediranib + Navitoclax; first compound 0.1265 µM)	relative viability (Cediranib + Navitoclax; first compound 0.4 µM)	relative viability (Cediranib + Navitoclax; first compound 1.265 µM)	relative viability (Cediranib + Navitoclax; first compound 4 µM)	relative viability (Cediranib + Alpelisib; first compound 0.04 µM)	relative viability (Cediranib + Alpelisib; first compound 0.1265 µM)	relative viability (Cediranib + Alpelisib; first compound 0.4 µM)	relative viability (Cediranib + Alpelisib; first compound 1.265 µM)	relative viability (Cediranib + Alpelisib; first compound 4 µM)
LC-2-ad	0.769	0.846	0.925	0.491	0.63	0.441	0.402	0.397	0.343	0.274	0.504	0.502	0.469	0.419	0.513	0.994	0.97	0.809	0.86	0.635
NCI-H596	1.07	1.14	0.699	0.913	0.881	0.609	0.602	0.353	0.431	0.56	0.943	0.926	0.938	0.879	0.996	0.489	0.481	0.478	0.509	0.577
NCI-H1437	1.1	0.962	0.758	0.61	0.391	0.435	0.416	0.381	0.268	0.246	1.14	1.17	1.06	1.07	1.13	1.02	1.03	0.971	0.954	1.12
SW 1573						0.257	0.239	0.17	0.127	0.111	0.925	1.06	0.872	1.01	1.05	0.586	0.834	0.655	0.619	0.79
NCI-H2228						0.194	0.235	0.104	0.145	0.157	0.791	0.968	0.883	1.22	1.1	0.955	0.85	0.791	0.929	0.826
NCI-H1650						0.509	0.367	0.259	0.2	0.207	1.19	1.29	1.08	1.12	0.751					
NCI-H358	0.554	0.527	0.413	0.272	0.328	0.27	0.182	0.165	0.1	0.106						1.04	1.05	0.745	0.996	0.926
COR-L 105						0.609	0.546	0.524	0.505	0.403		0.842	0.733	0.756	0.693		1.14	0.862	1.14	1.1
NCI-H650	0.775	0.618	0.427	0.388	0.346	0.196	0.198	0.203	0.123	0.152						1.06	1.02	1.05	1.12	1.21
Calu-6						0.234	0.285	0.182	0.166	0.14	0.876	0.86	0.898	0.788	0.819	1.06	1.01	0.991	0.935	1.04
